# What was measured:
# [1] = tested on: primary fibroblasts, cancer cells, immortalized fibroblasts; assay: intracellular VEGF ELISA in cell lysates; type: cell-based, human; conditions: 48 h
# Experimental: For the co-culture experiments, 5×10^4 cancer cells were seeded in transwell in 0.5 mL complete growth medium and placed on the top of 0.1×10^6 fibroblasts plated in 12-well in 1 mL low serum growth media overnight. Following day cancer cells were washed with PBS and media replaced with reduced (1%) serum growth media. 0.5×10^6 PBMC were plated on top of fibroblasts, incubated for 45 min and activated with CD3 (1 μg/ml final concentration) and CD28 (5 μg/ml final concentration). […] Monoculture experiments, 0.1×10^6 cells were seeded in 12-well in 1 mL of complete growth media (cancer cells) or low serum growth media (fibroblasts) and incubated overnight. […] Afterwards, cell culture media was collected, cell debris were removed by centrifugation the concentration of VEGF in the cell culture supernatants was measured using the human/mouse VEGF immunoassay Quantikine ELISA kit (R&D systems, Minneapolis, Minn., USA) according to the manufacturer's instructions. For the intracellular VEGF detection, total protein concentration was determined by BCA (Pierce Chemical, USA) and VEGF levels determined using the same kit described above.
# VEGFA mRNA = assay: RNA-seq of hypoxia activated HDF, VEGFA mRNA; type: cell-based, human
# Experimental: Afterwards RNA was extracted and analysed by RNA-seq. […] To evaluate which signalling pathways are induced in hypoxia activated fibroblasts, a comparative pathway analysis was performed on of samples coming from both, non-activated (normoxia) and hypoxia activated primary fibroblasts.
# [2] = tested on: primary fibroblasts, immortalized fibroblasts, cancer cells; assay: Scratch wound cell invasion assay through Matrigel; type: cell-based, human
# Experimental: The scratch wound cell invasion assay was used to measure the ability of indicated cells to invade through Matrigel® basement membrane. Pictures were taken every 2 hours over 4 days using a time-lapse microscope and wound closure over time is presented in charts.
# 96-well ImageLock plates were coated with 0.1 mg/ml growth factor reduced Matrigel® and incubated for 1 h at 37° C. Cells were seeded a density of 10,000-40,000 cells/well in 100 μL/well and incubated overnight. Next day wounds were simultaneously created in all wells using the WoundMaker. After wounding, media was aspirated from each well and cells were washed twice with PBS. For invasion cells were overlayed with 50 μL of the Matrigel® top layer at 3mg/ml and incubated for 30 min at 37° C. […] Cell plates were placed into the IncuCyte live-cell analysis system and each well imaged using 10× objective every 2 hours for the total of 5-days. Images were analysed using IncuCyte scratch wound protocol and results presented as percentage of wound confluence.
# MMP-7 = MMP-7 in supernatants of HDF invasion assay (Luminex); type: cell-based, human; conditions: invading HDF, 96 hours
# Experimental: The scratch wound cell invasion assay was used to measure the ability of primary human fibroblasts to invade through Matrigel® basement membrane. Cell culture supernatants from invasion assay were collected after 96 hours and MMP-7 levels were measured using Luminex®.
# To further explore whether USP7 inhibition modulates MMP levels in invading fibroblasts, cell culture supernatants from HDF invasion assay were collected and presence of various MMP was detected using Luminex® Multiplex assay.
# Concentrations of MMP2 and MMP7 were determined in cell culture supernatants in triplicates using Luminex human cytokine/chemokine multiplex kits (Millipore, St. Charles, Mo., USA) according to the manufacturer's protocol.
# tumour VEGFA mRNA = assay: RNA-seq of syngeneic CT-26 tumour samples; type: in vivo, mouse
# Experimental: Finally, mode of action of AD-04 in vivo was analysed by RNA-seq. […] Moreover, individual genes within HIF1A pathway were differentially modulated upon USP7 inhibition.
# [3] = tested on: CT-26 tumour cells in BALB/c mouse; assay: CT-26 syngeneic tumour model with immune checkpoint inhibitors (ADC-159 study); type: in vivo
# Experimental: FIG. 38: Effect of USP7 inhibition in combination with immune checkpoint inhibitors […] on the tumour microenvironment in vivo. […] Tumour volume of CT-26 xenograft implanted in immuno-competent syngeneic mice treated with vehicle control, ADC-159, anti-PD-L1, anti-CTLA-4 or in combination was measured twice weekly until day 13 post tumour implantation.
# FIG. 39: USP7 inhibition leads to increase survival when combined with anti-PD-L1 and anti-CTLA-4 immune checkpoint inhibitors. […] (B) Individual growth curves show improved anti-tumour response when USP7 inhibitor ADC-159 is combined with ICIs. n=10 animals/group.
# For the immune checkpoint inhibitor in vivo experiments, BALB/c mouse was injected subcutaneously in the right rear flank with 5×10^5 viable CT-26 tumour cells in 0.1 mL of PBS. ADC-159 (75 mg/kg and 100 mg/kg) was dosed daily while anti-PD-L1 or anti-CTLA4 (10 mg/kg) were dosed every 3 days. Tumour volume (mm^3) was measured with callipers three times a week using the equation: Tumour Volume (TV)=0.5((W)^2×L), where W is the shortest tumour diameter (width) and L is the longest perpendicular diameter (length), in millimetres. Body weights were measured on the same days during the dosing phase. […] Graphing and statistical analysis of tumour volume using one-way ANOVA followed by Dunnett's multiple comparisons test. […]
# USP7 = USP7 (Homo sapiens, UniProt Q93009); assay: TE (HCT116); type: cell-based
# Chain of USP7 (Q93009 whole entry): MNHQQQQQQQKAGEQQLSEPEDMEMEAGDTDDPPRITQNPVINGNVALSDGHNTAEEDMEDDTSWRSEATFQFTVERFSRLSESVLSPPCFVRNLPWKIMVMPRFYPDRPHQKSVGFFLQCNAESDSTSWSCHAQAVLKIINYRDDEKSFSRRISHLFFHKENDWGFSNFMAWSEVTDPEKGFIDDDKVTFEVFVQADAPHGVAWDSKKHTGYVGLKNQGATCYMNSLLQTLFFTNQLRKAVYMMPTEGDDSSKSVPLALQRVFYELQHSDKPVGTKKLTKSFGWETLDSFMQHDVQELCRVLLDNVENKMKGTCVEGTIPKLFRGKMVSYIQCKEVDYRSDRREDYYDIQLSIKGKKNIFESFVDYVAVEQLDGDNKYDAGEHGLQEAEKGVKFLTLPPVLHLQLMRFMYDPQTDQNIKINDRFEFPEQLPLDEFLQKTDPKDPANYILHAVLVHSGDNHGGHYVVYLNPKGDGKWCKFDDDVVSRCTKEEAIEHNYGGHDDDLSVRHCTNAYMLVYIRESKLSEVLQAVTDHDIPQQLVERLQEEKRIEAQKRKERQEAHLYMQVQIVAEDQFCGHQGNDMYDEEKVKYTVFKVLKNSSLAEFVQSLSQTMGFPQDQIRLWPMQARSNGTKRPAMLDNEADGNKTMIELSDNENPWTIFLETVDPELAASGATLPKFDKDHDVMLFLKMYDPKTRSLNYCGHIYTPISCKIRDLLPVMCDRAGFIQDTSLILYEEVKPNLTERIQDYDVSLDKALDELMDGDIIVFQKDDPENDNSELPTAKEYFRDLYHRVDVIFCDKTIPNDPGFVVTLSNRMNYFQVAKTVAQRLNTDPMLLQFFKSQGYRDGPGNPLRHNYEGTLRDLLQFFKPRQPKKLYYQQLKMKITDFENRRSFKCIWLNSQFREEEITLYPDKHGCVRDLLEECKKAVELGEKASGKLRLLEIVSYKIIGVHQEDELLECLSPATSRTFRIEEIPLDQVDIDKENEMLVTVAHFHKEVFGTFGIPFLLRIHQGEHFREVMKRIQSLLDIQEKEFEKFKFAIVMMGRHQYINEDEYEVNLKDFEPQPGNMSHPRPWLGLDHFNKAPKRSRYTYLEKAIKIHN
# LM CLhep (r) = type: in vitro ADME, rat
# Hep CLhep (r) = type: in vitro ADME, rat
# MDCK permeability = type: in vitro ADME; conditions: dog, MDCK; read-out: MDCK Papp ratio
# MDCK = MDCK permeability; type: in vitro ADME
# 1A2 = 1A2 (Homo sapiens, UniProt P05177); assay: Cyp inhibition 1A2; type: in vitro ADME; conditions: read-out: Cyps: 1A2
# Chain of 1A2 (P05177 whole entry): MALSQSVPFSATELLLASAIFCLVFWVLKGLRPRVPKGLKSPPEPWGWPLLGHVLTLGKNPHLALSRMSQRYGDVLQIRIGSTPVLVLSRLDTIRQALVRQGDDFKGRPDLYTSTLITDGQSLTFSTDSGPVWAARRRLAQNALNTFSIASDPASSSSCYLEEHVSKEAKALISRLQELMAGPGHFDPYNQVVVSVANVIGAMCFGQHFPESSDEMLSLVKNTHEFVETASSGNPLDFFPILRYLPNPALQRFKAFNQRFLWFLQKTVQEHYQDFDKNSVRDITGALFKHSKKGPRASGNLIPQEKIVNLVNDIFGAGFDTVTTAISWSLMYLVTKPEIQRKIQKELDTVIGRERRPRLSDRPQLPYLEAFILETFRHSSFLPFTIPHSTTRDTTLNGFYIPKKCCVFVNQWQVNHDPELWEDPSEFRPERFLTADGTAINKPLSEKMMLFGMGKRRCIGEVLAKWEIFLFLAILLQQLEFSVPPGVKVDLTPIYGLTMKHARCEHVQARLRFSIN
# 2C9 = 2C9 (Homo sapiens, UniProt P11712); assay: Cyp inhibition 2C9; type: in vitro ADME; conditions: read-out: Cyps: 2C9
# Chain of 2C9 (P11712 whole entry): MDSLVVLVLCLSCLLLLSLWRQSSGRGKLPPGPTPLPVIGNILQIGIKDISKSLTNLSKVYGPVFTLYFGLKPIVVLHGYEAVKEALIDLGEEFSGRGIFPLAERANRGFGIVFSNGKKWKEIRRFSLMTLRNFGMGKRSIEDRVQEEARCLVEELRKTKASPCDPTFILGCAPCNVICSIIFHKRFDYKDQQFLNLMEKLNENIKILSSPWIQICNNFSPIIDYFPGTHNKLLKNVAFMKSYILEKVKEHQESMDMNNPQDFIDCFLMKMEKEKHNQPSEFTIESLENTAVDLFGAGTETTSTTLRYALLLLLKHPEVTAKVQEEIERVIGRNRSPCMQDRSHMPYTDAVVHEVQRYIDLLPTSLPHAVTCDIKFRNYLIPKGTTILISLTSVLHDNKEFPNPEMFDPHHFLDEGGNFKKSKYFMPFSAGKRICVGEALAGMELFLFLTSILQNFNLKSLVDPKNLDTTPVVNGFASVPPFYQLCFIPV
# 3A4 = 3A4 (Homo sapiens, UniProt P08684); assay: Cyp inhibition 3A4; type: in vitro ADME; conditions: read-out: Cyps: 3A4
# Chain of 3A4 (P08684 whole entry): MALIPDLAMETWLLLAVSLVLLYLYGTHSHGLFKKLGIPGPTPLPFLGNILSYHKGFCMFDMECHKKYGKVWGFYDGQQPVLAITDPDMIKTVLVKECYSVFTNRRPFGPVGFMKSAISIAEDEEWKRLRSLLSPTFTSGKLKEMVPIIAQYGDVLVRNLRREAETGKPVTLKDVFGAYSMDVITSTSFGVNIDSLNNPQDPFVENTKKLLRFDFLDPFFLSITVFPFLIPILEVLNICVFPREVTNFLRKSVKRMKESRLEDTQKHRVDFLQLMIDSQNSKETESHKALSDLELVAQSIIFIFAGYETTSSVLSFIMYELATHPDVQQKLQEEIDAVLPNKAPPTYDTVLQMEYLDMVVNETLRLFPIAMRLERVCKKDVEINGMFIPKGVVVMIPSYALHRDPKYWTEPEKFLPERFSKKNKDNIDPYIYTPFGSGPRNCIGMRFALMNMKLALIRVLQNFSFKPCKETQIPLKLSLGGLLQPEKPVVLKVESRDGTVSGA
smiles,measurement,setting,value
"C[C@H](CC(=O)N1CCC(O)(Cn2cnc3c(-c4ccc(CN)cc4)n(C)nc3c2=O)CC1)c1ccccc1 [AD-04, (R)-3-(4-(Aminomethyl)phenyl)-6-((4-hydroxy-1-(3-phenylbutanoyl)piperidin-4-yl)methyl)-2-methyl-2H-pyrazolo[4,3-d]pyrimidin-7(6H)-one]",intracellular VEGF levels,[1]; cancer cells or immortalized fibroblasts,not in cancer cells or immortalized fibroblasts
same,intracellular VEGF levels,[1]; primary fibroblast lysates,decreases
same,mRNA expression of anti-angiogenic short (191aa) isoform,"VEGFA mRNA; hypoxia, 24 hours",up-regulated
same,mRNA expression of pro-angiogenic long (371aa) isoform,"VEGFA mRNA; hypoxia, 24 hours",strongly down-regulated
same,VEGF mRNA levels,VEGFA mRNA; hypoxic conditions,down-regulated
same,number of invading cells,[2]; cancer cells and immortalized fibroblasts,did not change
same,invasion through Matrigel basement membrane,"[2]; primary fibroblast, compared to vehicle-treated cells",greatly reduced
same,MMP-7 levels,MMP-7,decreases
same,tumour VEGFA long isoform mRNA,tumour VEGFA mRNA,increase
same,tumour VEGFA short isoform mRNA,tumour VEGFA mRNA,decrease
"CC1(C(=O)N2CCC(O)(Cn3cnc4c(cc(Cl)n4-c4ccc5c(c4)CCO5)c3=O)CC2)CC1 [ADC-159, 6-Chloro-7-(2,3-dihydrobenzofuran-5-yl)-3-((4-hydroxy-1-(1-methylcyclopropane-1-carbonyl)piperidin-4-yl)methyl)-3,7-dihydro-4H-pyrrolo[2,3-d]pyrimidin-4-One]",tumour growth inhibition (TGI),[3]; Day 13,23%
same,survival,"[3]; Kaplan-Meier, compared to vehicle controls",modest but significant increase
same,EC50,USP7,0.126 µM
same,LM CLhep (r),LM CLhep (r),27
same,Hep CLhep (r),Hep CLhep (r),43
same,efflux ratio,MDCK permeability,276
same,MDCK A:B,MDCK; A:B,0.2
same,MDCK B:A,MDCK; B:A,50.1
same,IC50,1A2,> 20 µM
same,IC50,2C9,11 µM
same,IC50,3A4,> 20 µM

# — US20230088286A1, “USP7 INHIBITOR FOR USE IN THE TREATMENT OF CANCER” (ALMAC DISCOVERY LIMITED, priority 2020, published 2023)
